Source: patent US7998932B2, “Inhibition of angiogenesis by neutrophil alpha-defensins” (The Trustees of the University of Pennsylvania, priority 2003, dated 2011)

Tested on: HUVEC
Experiment: HUVEC proliferation by BrdU incorporation
Type: cell-based, human
Conditions: over a period of 24 hours; 10 ng/ml VEGF or 1 μM sphingosine-1-phosphate
Description: Cell proliferation: Endothelial cell proliferation was determined by measuring the incorporation of bromodeoxyuridine (BrdU). Endothelial cells were plated onto 96-well plates and incubated for 12 hours after which the medium was changed to MCDB-131 containing 0.05% FCS. Cells were then incubated for 24 hours in the absence or presence of stimuli or competitors. BrdU was added to the medium during the last 6 hours of incubation. The cells were then fixed and cell proliferation was quantified with a standardized calorimetric immunoassay (Roche Diagnostics, Mannheim, Germany) according to the manufacturer's instructions.

Compound | increase of DNA synthesis in HUVEC
VEGF | approximately two-fold
CCCCCCCCCCCCC/C=C/[C@@H](O)[C@@H](N)COP(=O)(O)O [sphingosine-1-phosphate] | approximately two-fold
